This note sets out measurements from patent publication US12077503B2, “Substituted cyclic amides and their use as herbicides” (FMC CORPORATION, priority 2015, dated 2024).

Type in all cases: in vivo
Test [1] concerns giant foxtail (Setaria faberii). The experiment in a line: Test A postemergence. The following applies: Setaria faberi, post-emergence, 240 h, 125 g ai/ha, postemergence, visual injury rating after approximately 10 d; read-out: Foxtail, Giant plant response rating (0 to 100 scale, 0 no effect, 100 complete control). The method in brief: (§1)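 Compounds were formulated in a non-phytotoxic solvent mixture with surfactant and applied as a preemergence directed soil spray after seeding, or sprayed postemergence over plants 2 to 10 cm tall at the one- to two-leaf stage. Evaluation after about 10 d compared treated with untreated controls, using a scale from 0 (no effect) to 100 (complete control).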

Test [2] relates to ragweed (common ragweed, Ambrosia elatior). The experiment in a line: Test A postemergence. The following applies: Ambrosia artemisiifolia, post-emergence, 240 h, 125 g ai/ha, postemergence, visual injury rating after approximately 10 d; read-out: Ragweed plant response rating (0 to 100 scale, 0 no effect, 100 complete control). The method in brief:
as §1

The subject of test [3] is Galium (catchweed bedstraw, Galium aparine). The experiment in a line: Test A postemergence. The conditions noted are these: Galium, post-emergence, 240 h, 125 g ai/ha, postemergence, visual injury rating after approximately 10 d; read-out: Galium plant response rating (0 to 100 scale, 0 no effect, 100 complete control). The method in brief:
as §1

Test [4] relates to wheat (Triticum aestivum). The experiment in a line: Test A postemergence. The conditions noted are these: Triticum aestivum, post-emergence, 240 h, 125 g ai/ha, postemergence, visual injury rating after approximately 10 d; read-out: Wheat plant response rating (0 to 100 scale, 0 no effect, 100 complete control). The method in brief:
as §1

Test [5] relates to ryegrass, Italian (Italian ryegrass, Lolium multiflorum). The experiment in a line: Test A postemergence. The following applies: Lolium multiflorum, post-emergence, 240 h, 125 g ai/ha, postemergence, visual injury rating after approximately 10 d; read-out: Ryegrass, Italian plant response rating (0 to 100 scale, 0 no effect, 100 complete control). In outline: as §1
For test [6], the system named is corn (Zea mays). The experiment in a line: Test A postemergence. The following applies: Zea mays, post-emergence, 240 h, 125 g ai/ha, postemergence, visual injury rating after approximately 10 d; read-out: Corn plant response rating (0 to 100 scale, 0 no effect, 100 complete control). In outline:
as §1

Test [7] deals with barnyardgrass (Echinochloa crus-galli). The experiment in a line: Test A postemergence. The conditions noted are these: Echinochloa crus-galli, post-emergence, 240 h, 125 g ai/ha, postemergence, visual injury rating after approximately 10 d; read-out: Barnyardgrass plant response rating (0 to 100 scale, 0 no effect, 100 complete control). In outline: as §1
For test [8], the system named is pigweed (Amaranthus retroflexus). The experiment in a line: Test A postemergence. The conditions noted are these: Amaranthus retroflexus, post-emergence, 240 h, 125 g ai/ha, postemergence, visual injury rating after approximately 10 d; read-out: Pigweed plant response rating (0 to 100 scale, 0 no effect, 100 complete control). In outline: as §1
The test system of test [9] is Kochia (Kochia scoparia). The experiment in a line: Test A postemergence. The following applies: Bassia scoparia, post-emergence, 240 h, 125 g ai/ha, postemergence, visual injury rating after approximately 10 d; read-out: Kochia plant response rating (0 to 100 scale, 0 no effect, 100 complete control). The method in brief: as §1
For test [10], the system named is giant foxtail (Setaria faberii). The experiment in a line: Test A preemergence. The following applies: Setaria faberi, pre-emergence, 240 h; for pest or weed control at 125 g/ha: 125 g ai/ha, preemergence, 0 to 100 scale where 0 is no effect and 100 is complete control, read-out: Foxtail, Giant plant response rating; for pest or weed control at 500 g/ha: 500 g ai/ha, Preemergence, visual injury vs untreated controls after approximately 10 d, read-out: Foxtail, Giant plant response rating (0 to 100 scale where 0 is no effect and 100 is complete control). The method in brief:
as §1

Test [11] relates to ragweed (common ragweed, Ambrosia elatior). The experiment in a line: Test A preemergence. The conditions noted are these: Ambrosia artemisiifolia, pre-emergence, 240 h; for pest or weed control at 125 g/ha: 125 g ai/ha, preemergence, 0 to 100 scale where 0 is no effect and 100 is complete control, read-out: Ragweed plant response rating; for pest or weed control at 500 g/ha: 500 g ai/ha, Preemergence, visual injury vs untreated controls after approximately 10 d, read-out: Ragweed plant response rating (0 to 100 scale where 0 is no effect and 100 is complete control). The method in brief:
as §1

The test system of test [12] is ryegrass, Italian (Italian ryegrass, Lolium multiflorum). The experiment in a line: Test A preemergence. The following applies: Lolium multiflorum, pre-emergence, 240 h; for pest or weed control at 125 g/ha: 125 g ai/ha, preemergence, 0 to 100 scale where 0 is no effect and 100 is complete control, read-out: Ryegrass, Italian plant response rating; for pest or weed control at 500 g/ha: 500 g ai/ha, Preemergence, visual injury vs untreated controls after approximately 10 d, read-out: Ryegrass, Italian plant response rating (0 to 100 scale where 0 is no effect and 100 is complete control). The method in brief: as §1

For test [13], the system named is barnyardgrass (Echinochloa crus-galli). The experiment in a line: Test A preemergence. The following applies: Echinochloa crus-galli, pre-emergence, 240 h; for pest or weed control at 125 g/ha: 125 g ai/ha, preemergence, 0 to 100 scale where 0 is no effect and 100 is complete control, read-out: Barnyardgrass plant response rating; for pest or weed control at 500 g/ha: 500 g ai/ha, Preemergence, visual injury vs untreated controls after approximately 10 d, read-out: Barnyardgrass plant response rating (0 to 100 scale where 0 is no effect and 100 is complete control). The method in brief:
as §1

The test system of test [14] is pigweed (Amaranthus retroflexus). The experiment in a line: Test A preemergence. The following applies: Amaranthus retroflexus, pre-emergence, 240 h; for pest or weed control at 125 g/ha: 125 g ai/ha, preemergence, 0 to 100 scale where 0 is no effect and 100 is complete control, read-out: Pigweed plant response rating; for pest or weed control at 500 g/ha: 500 g ai/ha, Preemergence, visual injury vs untreated controls after approximately 10 d, read-out: Pigweed plant response rating (0 to 100 scale where 0 is no effect and 100 is complete control).

For test [15], the system named is Kochia (Kochia scoparia). The experiment in a line: Test A preemergence. The following applies: Bassia scoparia, pre-emergence, 240 h; for pest or weed control at 125 g/ha: 125 g ai/ha, preemergence, 0 to 100 scale where 0 is no effect and 100 is complete control, read-out: Kochia plant response rating; for pest or weed control at 500 g/ha: 500 g ai/ha, Preemergence, visual injury vs untreated controls after approximately 10 d, read-out: Kochia plant response rating (0 to 100 scale where 0 is no effect and 100 is complete control). In outline:
as §1

As to `CS(=O)(=O)c1ccccc1NC(=O)[C@H]1C(=O)NC[C@@H]1c1cc(F)c(C(F)(F)F)c(F)c1` [Compound 839], the pest or weed control at 125 g/ha was 60% in [1]; 60% in test [2]; 80% in test [3]; 50% in test [5]; 60% in test [7]; 80% in test [8]. Further, the pest or weed control at 125 g/ha worked out at 70% in [9]; 90% in test [10]; 80% in test [11]; 0% in test [12]; 80% in [13]; 90% in test [14]. Moreover, the pest or weed control at 125 g/ha in test [15] was found to be 90%. Further, the plant injury at 125 g/ha in test [4] was 50%; in test [6], 30%. Also, the pest or weed control at 500 g/ha was found to be 90% in test [10]; 90% in [11]; 40% in test [12]; 90% in test [13]; 90% in test [14]; 90% in [15].

Take `CC(C)c1cccc([C@H]2CN(C)C(=O)[C@@H]2C(=O)Nc2ccccc2F)c1` [Compound 819]: the pest or weed control at 125 g/ha in test [1] was determined as 90%; in [2] it was 0%; in test [3], 50%; in test [5], 70%; in test [7], 100%; in [8] it was 30%. Also, the pest or weed control at 125 g/ha turned out to be 30% in [9]; 100% in [10]; 0% in [11]; 80% in [12]; 90% in test [13]; 30% in [14]. Besides, in [15], the pest or weed control at 125 g/ha worked out at 70%. For the same compound, the plant injury at 125 g/ha in [4] was determined as 30%; in [6], 40%. For the same compound, the pest or weed control at 500 g/ha in test [10] is 100%; in [11] it was 20%; in [12], 100%; in [13], 100%; in [14], 30%; in [15] it was 100%.
